Measurements from US20220298138A1, “ENZYME INHIBITORS” (KALVISTA PHARMACEUTICALS LIMITED, priority 2019, published 2022).

Biological target: T1, Human Factor XIIa (Homo sapiens, UniProt P00748)
T1 construct: purchased Enzyme Research Laboratories
T1 sequence (P00748 373-615 limits assumed): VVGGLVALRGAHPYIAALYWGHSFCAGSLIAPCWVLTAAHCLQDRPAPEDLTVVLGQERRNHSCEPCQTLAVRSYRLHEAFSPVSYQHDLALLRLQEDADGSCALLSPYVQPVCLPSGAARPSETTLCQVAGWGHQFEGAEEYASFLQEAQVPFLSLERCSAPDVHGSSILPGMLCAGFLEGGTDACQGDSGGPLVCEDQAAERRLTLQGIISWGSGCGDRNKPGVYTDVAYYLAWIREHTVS
Assay: Factor XIIa inhibitory activity in vitro (fluorogenic substrate H-DPro-Phe-Arg-AFC)
Format: biochemical
Conditions: 25° C., class symbols, read-out: Human FXIIa IC50
Protocol: Determination of the % Inhibition for FXIIa
Human Factor XIIa (Enzyme Research Laboratories) was incubated at 25° C. with the fluorogenic substrate H-DPro-Phe-Arg-AFC and various concentrations of the test compound. Residual enzyme activity (initial rate of reaction) was determined by measuring the change in […] at 410 nm and the IC50 value for the test compound was determined.

Row | SMILES | IC50 [µM]
1 | Nc1nccc2cc(CNC(=O)[C@H](Cc3ccc(F)c(F)c3)NC(=O)c3cn[nH]c3)ccc12 [Example 0.65] | 10 to 40
2 | Nc1nccc2cc(CNC(=O)[C@H](Cc3ccc(F)c(F)c3)NC(=O)c3ccno3)ccc12 [Example 0.30] | 10 to 40
3 | COc1cc(C(=O)N[C@@H](Cc2ccc(F)c(F)c2)C(=O)NCc2ccc3c(N)nccc3c2)on1 [Example 0.32] | 3 to 10
4 | CCn1nc(C)cc1C(=O)N[C@@H](Cc1ccc(F)c(F)c1)C(=O)NCc1ccc2c(N)nccc2c1 [Example 0.55] | 10 to 40
5 | COc1cnccc1C(=O)N[C@@H](Cc1ccc(F)c(F)c1)C(=O)NCc1ccc2c(N)nccc2c1 [Example 0.84] | 10 to 40
6 | CCCn1ncc(C(=O)N[C@@H](Cc2ccc(F)c(F)c2)C(=O)NCc2ccc3c(N)nccc3c2)c1C [Example 0.70] | 10 to 40
7 | Cn1ccc(C(=O)N[C@@H](Cc2ccc(F)c(F)c2)C(=O)NCc2ccc3c(N)nccc3c2)n1 [Example 0.17] | 10 to 40
8 | Nc1nccc2cc(CNC(=O)[C@H](Cc3ccc(F)c(F)c3)NC(=O)CCCOCc3ccccc3)ccc12 [Example 0.24] | 10 to 40
9 | Nc1nccc2cc(CNC(=O)[C@H](Cc3ccc(F)c(F)c3)NC(=O)c3cnc4n(c3=O)CCS4)ccc12 [Example 0.37] | 1 to 3
10 | Nc1nccc2cc(CNC(=O)[C@H](Cc3ccc(F)c(F)c3)NC(=O)c3cc4ccccc4o3)ccc12 [Example 0.48] | 10 to 40
11 | CC(C)c1ncc(C(=O)N[C@@H](Cc2ccc(F)c(F)c2)C(=O)NCc2ccc3c(N)nccc3c2)cn1 [Example 0.92] | 3 to 10
12 | CC(C)c1ncncc1C(=O)N[C@@H](Cc1ccc(F)c(F)c1)C(=O)NCc1ccc2c(N)nccc2c1 [Example 0.89] | 10 to 40
13 | Nc1nccc2cc(CNC(=O)[C@H](Cc3ccc(F)c(F)c3)NC(=O)c3ccncc3)ccc12 [Example 0.35] | 10 to 40
14 | Nc1nccc2cc(CNC(=O)[C@H](Cc3ccc(F)c(F)c3)NC(=O)COCc3ccccc3)ccc12 [Example 0.39] | 10 to 40
15 | Nc1nccc2cc(CNC(=O)[C@H](Cc3ccc(F)c(F)c3)NC(=O)c3ccncn3)ccc12 [Example 0.71] | 3 to 10
16 | Nc1nccc2cc(CNC(=O)[C@H](Cc3ccc(F)c(F)c3)NC(=O)c3ccc(F)c(F)c3)ccc12 [Example 0.49] | 10 to 40
17 | Nc1nccc2cc(CNC(=O)[C@H](Cc3ccc(F)c(F)c3)NC(=O)c3cccc(O)n3)ccc12 [Example 0.57] | 1 to 3
18 | Nc1nccc2cc(CNC(=O)[C@H](Cc3ccc(F)c(F)c3)NC(=O)c3nccc4ccccc34)ccc12 [Example 0.80] | 10 to 40
19 | Cn1cc(C(=O)N[C@@H](Cc2ccc(F)c(F)c2)C(=O)NCc2ccc3c(N)nccc3c2)ccc1=O [Example 0.52] | 3 to 10
20 | CN1CCC(C(=O)N[C@@H](Cc2ccc(F)c(F)c2)C(=O)NCc2ccc3c(N)nccc3c2)CC1 [Example 0.43] | 3 to 10
21 | Nc1nccc2cc(CNC(=O)[C@H](Cc3ccc(F)c(F)c3)NC(=O)c3ncccn3)ccc12 [Example 0.18] | 10 to 40
22 | CCCc1cc(C(=O)N[C@@H](Cc2ccc(F)c(F)c2)C(=O)NCc2ccc3c(N)nccc3c2)nn1C [Example 0.79] | 3 to 10
23 | Nc1nccc2cc(CNC(=O)[C@H](Cc3ccc(F)c(F)c3)NC(=O)c3ccc(-c4cncnc4)cc3)ccc12 [Example 0.27] | 10 to 40
24 | Cn1cc(C(=O)N[C@@H](Cc2ccc(F)c(F)c2)C(=O)NCc2ccc3c(N)nccc3c2)cn1 [Example 0.03] | 10 to 40
25 | COc1cc(C(=O)N[C@@H](Cc2ccc(F)c(F)c2)C(=O)NCc2ccc3c(N)nccc3c2)ccc1F [Example 0.58] | 3 to 10
26 | CN1CCN(c2cccc(C(=O)N[C@@H](Cc3ccc(F)c(F)c3)C(=O)NCc3ccc4c(N)nccc4c3)c2)CC1 [Example 0.08] | 3 to 10
27 | Nc1nccc2cc(CNC(=O)[C@H](Cc3ccc(F)c(F)c3)NC(=O)CCc3ccccc3)ccc12 [Example 0.46] | 10 to 40
28 | Nc1nccc2cc(CNC(=O)[C@H](Cc3ccc(F)c(F)c3)NC(=O)c3ccsc3)ccc12 [Example 0.77] | 10 to 40

Other lines, results leading:

Row | IC50 [µM] | SMILES
29 | 3 to 10 | C[C@@H]1CCC[C@H](C)N1CC(=O)N[C@@H](CC1CCCCC1)C(=O)NCc1ccc2c(N)nccc2c1 [Example 3.16]
30 | 10 to 40 | CC(C)N[C@H](CCc1ccccc1)C(=O)N[C@@H](C)C(=O)NCc1cc2c(Cl)cccc2s1 [Example 9.23]
31 | 10 to 40 | Nc1nccc2cc(CNC(=O)[C@@H](N)Cc3cccc(F)c3)ccc12 [Example 24.02]
32 | 3 to 10 | CC(C)(C)OC(=O)N[C@H](CCc1ccccc1)C(=O)N1CCC[C@H]1C(=O)NCc1ccc2c(N)nccc2c1 [Example 17.01]
33 | 1 to 3 | CC(C(=O)N[C@@H](Cc1ccc(F)c(F)c1)C(=O)NCc1ccc2c(N)nccc2c1)N1CCCC1 (stereo partly drawn) [Example 5.103]
34 | 0.28 to 1 | CC(C)N[C@H](CCc1ccccc1)C(=O)NCC(=O)NCc1ccc2c(N)nccc2c1 [Example 6.07]
35 | 0.28 to 1 | Nc1nccc2cc(CNC(=O)[C@@H]3CCCN3C(=O)[C@H](N)CCc3ccccc3)ccc12 [Example 17.02]
36 | 10 to 40 | CC(C)N[C@H](CCc1ccccc1)C(=O)N[C@@H](C)C(=O)NCCc1ccnc(N)c1 [Example 9.12]
37 | 0.1 to 0.279 | C[C@@H]1CCC[C@H](C)N1CC(=O)N[C@@H](Cc1c[nH]c2ccccc12)C(=O)NCc1ccc2c(N)nccc2c1 [Example 3.21]
38 | 1 to 3 | Nc1nccc2cc(CNC(=O)[C@H](Cc3ccc(F)c(F)c3)NC(=O)CN3CCCCCC3)ccc12 [Example 3.38]
39 | 10 to 40 | C[C@@H]1CCC[C@H](C)N1CC(=O)N1CCC[C@H]1C(=O)NCc1ccc2c(N)nccc2c1 [Example 32.02]
40 | 10 to 40 | C[C@@H]1CCC[C@H](C)N1CC(=O)N[C@@H](Cc1ccc(F)c(F)c1)C(=O)NCc1ccc2c(N)n[nH]c2c1 [Example 3.104, (2S)—N-[(3-amino-1H-indazol-6-yl)methyl]-3-(3,4-difluorophenyl)-2-{2-[(2R,6S)-2,6-dimethylpiperidin-1-yl]acetamido}propanamide]
41 | 0.28 to 1 | C[C@@H]1CCC[C@H](C)N1[C@H](C)C(=O)N[C@@H](Cc1ccc(F)c(F)c1)C(=O)NCc1ccc2c(N)nccc2c1 [Example 5.105]
42 | 10 to 40 | C[C@@H]1CCC[C@H](C)N1CC(=O)N1CC[C@H](C(=O)NCc2ccc3c(N)nccc3c2)C1 [Example 32.06]
43 | 10 to 40 | C[C@@H]1CCC[C@H](C)N1CC(=O)N1c2ccccc2CC[C@H]1C(=O)NCc1ccc2c(N)nccc2c1 [Example 32.09]
44 | 3 to 10 | CC[C@H](NC(=O)CN1[C@H](C)CCC[C@@H]1C)C(=O)NCc1ccc2c(N)nccc2c1 [Example 3.22]
45 | 1 to 3 | CCC(C)[C@@H](N)C(=O)N[C@@H](Cc1cccc2ccccc12)C(=O)NCc1ccc2c(N)nccc2c1 (stereo partly drawn) [Example 18.101]
46 | 0.28 to 1 | Nc1nccc2cc(CNC(=O)CNC(=O)[C@H](N)CCc3ccccc3)ccc12 [Example 6.02]

Row | IC50 [µM] | SMILES
47 | 0.28 to 1 | C[C@H]1CC[C@H](C)N1CC(=O)N[C@@H](Cc1ccc(F)c(F)c1)C(=O)NCc1ccc2c(N)nccc2c1 [Example 3.19]
48 | 10 to 40 | C[C@@H]1CCC[C@H](C)N1CC(=O)N[C@@H](Cc1ccc(F)c(F)c1)C(=O)NCc1ccc2c(N)noc2c1 [Example 3.105, (2S)—N-[(3-amino-1,2-benzoxazol-6-yl)methyl]-3-(3,4-difluorophenyl)-2-{2-[(2R,6S)-2,6-dimethylpiperidin-1-yl]acetamido}propanamide]
49 | 3 to 10 | C[C@@H]1CCC[C@H](C)N1CC(=O)N[C@@H](Cc1ccc(F)c(F)c1)C(=O)NC1CCN(c2ccncc2)CC1 [Example 34.02]
50 | 10 to 40 | Nc1nccc2cc(CNC(=O)[C@H](Cc3ccc(F)c(F)c3)NC(=O)CCn3cncn3)ccc12 [Example 20.07]
51 | 10 to 40 | CC(C)(C)OC(=O)N[C@H](CCc1ccccc1)C(=O)NC(C)(C)C(=O)NCc1ccc2c(N)nccc2c1 [Example 6.03]
52 | 3 to 10 | CC(C)N[C@H](CCc1ccccc1)C(=O)N[C@@H](C)C(=O)NCc1ccnc(N)c1 [Example 9.09]
53 | 0.28 to 1 | CC1(C)CCCN1CC(=O)N[C@@H](Cc1ccc(F)c(F)c1)C(=O)NCc1ccc2c(N)nccc2c1 [Example 3.18]
54 | 3 to 10 | CN[C@H](CCc1ccccc1)C(=O)N[C@@H](Cc1ccccc1)C(=O)NCc1ccc2c(N)nccc2c1 [Example 6.08]
55 | 10 to 40 | CCOC(=O)c1cn(-c2ccc(OC)c(F)c2CNC(=O)[C@H](C)NC(=O)[C@@H](CCc2ccccc2)NC(C)C)nn1 [Example 9.19]
56 | 10 to 40 | N#Cc1ccccc1CN[C@@H](Cc1ccc(F)c(F)c1)C(=O)NCc1ccc2c(N)nccc2c1 [Example 55.03]
57 | 10 to 40 | Nc1nccc2cc(CNC(=O)[C@H](Cc3ccc(F)c(F)c3)NC(=O)CCc3[nH]nc4c3CCCC4)ccc12 [Example 20.10]
58 | 1 to 3 | CN(C)CC(=O)N[C@@H](Cc1ccc(F)c(F)c1)C(=O)NCc1ccc2c(N)nccc2c1 [Example 3.03]
59 | 10 to 40 | Nc1nccc2cc(CNC(=O)[C@H](Cc3ccc(F)c(F)c3)NC(=O)C[C@H]3CCCO3)ccc12 [Example 3.36]
60 | 3 to 10 | N[C@H](CCCCN1CCOCC1)C(=O)N1CC[C@H]1C(=O)NCc1ccc2[nH]cc(Cl)c2c1 [Example 10.19]
61 | 3 to 10 | CC(OCc1ccccc1)[C@H](NC(=O)CN1[C@H](C)CCC[C@@H]1C)C(=O)NCc1ccc2c(N)nccc2c1 (stereo partly drawn) [Example 39.05]
62 | 10 to 40 | C[C@@H]1CCC[C@H](C)N1CC(=O)N[C@@H](Cc1ccc(F)c(F)c1)C(=O)NCc1ccnc(N)c1 [Example 34.04]
63 | 0.28 to 1 | CC(C)N1CCC[C@@H]1C(=O)N[C@@H](Cc1ccc(F)c(F)c1)C(=O)NCc1ccc2c(N)nccc2c1 [Example 44.01]
